Legend:
sedge, umbrella = assay: Test C flooded paddy test; format: in vivo, Cyperus difformis; conditions: Flood, scale 0 to 100 (0 no effect, 100 complete control), 13 to 15 days
Procedure, shortened: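 Flooded 3 cm over soil; compound into paddy water; depth kept constant. Greenhouse 13–15 d.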

velvetleaf = assay: Test E preemergence; format: in vivo, Abutilon theophrasti; conditions: for Velvetleaf plant response rating: scale 0 to 100 (0 no effect, 100 complete control)
Procedure, shortened: (§1)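 Response was scored visually on a 0-100 scale (100 = complete control) versus controls after 14 to 21 days in the greenhouse. Test chemicals, formulated with surfactant in a non-phytotoxic solvent mixture, had been applied preemergence to seeds in silt loam soil or postemergence to 1- to 4-leaf plants in potting medium.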

large (Lg) crabgrass = assay: Test E preemergence; format: in vivo, Digitaria sanguinalis; conditions: for Crabgrass, Large plant response rating: scale 0 to 100 (0 no effect, 100 complete control)
Procedure, shortened: as §1

fall panicum = assay: Test E preemergence; format: in vivo, Panicum dichotomiflorum; conditions: for Panicum, Fall plant response rating: scale 0 to 100 (0 no effect, 100 complete control)
Procedure, shortened: as §1

green foxtail = assay: Test E preemergence; format: in vivo, Setaria viridis; conditions: for Foxtail, Green plant response rating: scale 0 to 100 (0 no effect, 100 complete control)
Procedure, shortened: as §1

johnsongrass = assay: Test E preemergence; format: in vivo, Sorghum halepense; conditions: for Johnsongrass plant response rating: scale 0 to 100 (0 no effect, 100 complete control)
Procedure, shortened: as §1

ragweed = assay: Test E preemergence; format: in vivo, Ambrosia elatior; conditions: for Ragweed plant response rating: scale 0 to 100 (0 no effect, 100 complete control)
Procedure, shortened: as §1

arrowleaf sida = assay: Test E preemergence; format: in vivo, Sida rhombifolia; conditions: preemergence; for Arrowleaf Sida plant response rating: scale 0 to 100 (0 no effect, 100 complete control)
Procedure, shortened: as §1

dayflower = assay: Test E preemergence; format: in vivo, Commelina virginica; conditions: for Dayflower, VA plant response rating: scale 0 to 100 (0 no effect, 100 complete control)
Procedure, shortened: as §1

morningglory = assay: Test E preemergence; format: in vivo, Ipomoea coccinea; conditions: for Morningglory plant response rating: scale 0 to 100 (0 no effect, 100 complete control)
Procedure, shortened: as §1

nightshade = assay: Test E preemergence; format: in vivo, Solanum ptycanthum; conditions: for Nightshade plant response rating: scale 0 to 100 (0 no effect, 100 complete control)
Procedure, shortened: as §1

hairy beggarticks = assay: Test E preemergence; format: in vivo, Bidens pilosa; conditions: preemergence; for Beggarticks plant response rating: scale 0 to 100 (0 no effect, 100 complete control)
Procedure, shortened: as §1

[1] = 125 g ai/ha, scale 0 to 100, 0 no effect, 100 complete control
[2] = 8 g ai/ha, scale 0 to 100, 0 is no effect, 100 is complete control

FC(F)(F)c1cnn(-c2c(Cl)cccc2Oc2ncc(Cl)cn2)c1 [Compound 167]
Plant response rating, Sedge, Umbrella (sedge, umbrella; 31 g ai/ha): 60 | Plant response rating, Sedge, Umbrella (sedge, umbrella; 62 g ai/ha): 70 | Plant response rating, Sedge, Umbrella (sedge, umbrella; 125 g ai/ha): 80 | Plant response rating, Sedge, Umbrella (sedge, umbrella; 250 g ai/ha): 85 | Velvetleaf plant response rating (velvetleaf; 31 g ai/ha): 20 | Velvetleaf plant response rating (velvetleaf; 62 g ai/ha): 65 | Plant response rating, Velvetleaf (velvetleaf; [1]): 100 | Crabgrass, Large plant response rating (large (Lg) crabgrass; 16 g ai/ha): 0 | Crabgrass, Large plant response rating (large (Lg) crabgrass; 31 g ai/ha): 65 | Crabgrass, Large plant response rating (large (Lg) crabgrass; 62 g ai/ha): 100 | Plant response rating, Crabgrass, Large (large (Lg) crabgrass; [1]): 100 | Panicum, Fall plant response rating (fall panicum; 31 g ai/ha): 65 | Panicum, Fall plant response rating (fall panicum; 62 g ai/ha): 100 | Plant response rating, Panicum, Fall (fall panicum; [1]): 100 | Foxtail, Green plant response rating (green foxtail; 16 g ai/ha): 10 | Foxtail, Green plant response rating (green foxtail; 31 g ai/ha): 35 | Foxtail, Green plant response rating (green foxtail; 62 g ai/ha): 70 | Plant response rating, Foxtail, Green (green foxtail; [1]): 90 | Johnsongrass plant response rating (johnsongrass; 31 g ai/ha): 10 | Johnsongrass plant response rating (johnsongrass; 62 g ai/ha): 30 | Plant response rating, Johnsongrass (johnsongrass; [1]): 70 | Ragweed plant response rating (ragweed; 31 g ai/ha): 15 | Ragweed plant response rating (ragweed; 62 g ai/ha): 35 | Plant response rating, Ragweed (ragweed; [1]): 35 | Arrowleaf Sida plant response rating (arrowleaf sida; 16 g ai/ha): 65 | Arrowleaf Sida plant response rating (arrowleaf sida; 31 g ai/ha): 65 | Arrowleaf Sida plant response rating (arrowleaf sida; 62 g ai/ha): 100 | Plant response rating, Arrowleaf Sida (arrowleaf sida; [1]): 100 | Dayflower, VA plant response rating (dayflower; 16 g ai/ha): 0 | Dayflower, VA plant response rating (dayflower; 31 g ai/ha): 5 | Dayflower, VA plant response rating (dayflower; 62 g ai/ha): 65 | Plant response rating, Dayflower, VA (dayflower; [1]): 100 | Morningglory plant response rating (morningglory; 31 g ai/ha): 25 | Morningglory plant response rating (morningglory; 62 g ai/ha): 40 | Plant response rating, Morningglory (morningglory; [1]): 65 | Nightshade plant response rating (nightshade; 31 g ai/ha): 98 | Nightshade plant response rating (nightshade; 62 g ai/ha): 100 | Plant response rating, Nightshade (nightshade; [1]): 100 | Beggarticks plant response rating (hairy beggarticks; 16 g ai/ha): 0 | Beggarticks plant response rating (hairy beggarticks; 31 g ai/ha): 0 | Beggarticks plant response rating (hairy beggarticks; 62 g ai/ha): 0 | Plant response rating, Beggarticks (hairy beggarticks; [1]): 0

Fc1cccc(Oc2ncc(Cl)cn2)c1-n1cc(I)cn1 [Compound 179]
Plant response rating, Sedge, Umbrella (sedge, umbrella; 31 g ai/ha): 0 | Plant response rating, Sedge, Umbrella (sedge, umbrella; 62 g ai/ha): 0 | Plant response rating, Sedge, Umbrella (sedge, umbrella; 125 g ai/ha): 40 | Plant response rating, Sedge, Umbrella (sedge, umbrella; 250 g ai/ha): 80 | Plant response rating, Velvetleaf (velvetleaf; [2]): 20 | Velvetleaf plant response rating (velvetleaf; 62 g ai/ha): 100 | Plant response rating, Velvetleaf (velvetleaf; [1]): 100 | Plant response rating, Crabgrass, Large (large (Lg) crabgrass; [2]): 0 | Crabgrass, Large plant response rating (large (Lg) crabgrass; 16 g ai/ha): 0 | Crabgrass, Large plant response rating (large (Lg) crabgrass; 62 g ai/ha): 75 | Plant response rating, Crabgrass, Large (large (Lg) crabgrass; [1]): 98 | Plant response rating, Panicum, Fall (fall panicum; [2]): 0 | Panicum, Fall plant response rating (fall panicum; 62 g ai/ha): 75 | Plant response rating, Panicum, Fall (fall panicum; [1]): 98 | Plant response rating, Foxtail, Green (green foxtail; [2]): 0 | Foxtail, Green plant response rating (green foxtail; 16 g ai/ha): 0 | Foxtail, Green plant response rating (green foxtail; 62 g ai/ha): 25 | Plant response rating, Foxtail, Green (green foxtail; [1]): 100 | Plant response rating, Johnsongrass (johnsongrass; [2]): 0 | Johnsongrass plant response rating (johnsongrass; 62 g ai/ha): 20 | Plant response rating, Johnsongrass (johnsongrass; [1]): 25 | Plant response rating, Ragweed (ragweed; [2]): 0 | Ragweed plant response rating (ragweed; 62 g ai/ha): 0 | Plant response rating, Ragweed (ragweed; [1]): 0 | Plant response rating, Arrowleaf Sida (arrowleaf sida; [2]): 0 | Arrowleaf Sida plant response rating (arrowleaf sida; 16 g ai/ha): 20 | Arrowleaf Sida plant response rating (arrowleaf sida; 62 g ai/ha): 100 | Plant response rating, Arrowleaf Sida (arrowleaf sida; [1]): 100 | Plant response rating, Dayflower, VA (dayflower; [2]): 0 | Dayflower, VA plant response rating (dayflower; 16 g ai/ha): 0 | Dayflower, VA plant response rating (dayflower; 62 g ai/ha): 0 | Plant response rating, Dayflower, VA (dayflower; [1]): 60 | Plant response rating, Morningglory (morningglory; [2]): 0 | Morningglory plant response rating (morningglory; 62 g ai/ha): 10 | Plant response rating, Morningglory (morningglory; [1]): 30 | Plant response rating, Nightshade (nightshade; [2]): 0 | Nightshade plant response rating (nightshade; 62 g ai/ha): 80 | Plant response rating, Nightshade (nightshade; [1]): 95 | Plant response rating, Beggarticks (hairy beggarticks; [2]): 0 | Beggarticks plant response rating (hairy beggarticks; 16 g ai/ha): 0 | Beggarticks plant response rating (hairy beggarticks; 62 g ai/ha): 0 | Plant response rating, Beggarticks (hairy beggarticks; [1]): 0

From patent publication US9695155B2, “Herbicidal substituted pyrimidinyloxy benzene compounds” (E. I. DU PONT DE NEMOURS AND COMPANY, priority 2013, dated 2017)
